Results from ChEMBL document CHEMBL1201861, “Genomics of Drug Sensitity in Cancer screening data, Wellcome Trust Sanger Institute”.

What was measured:
CWR22R = experiment: cells; type: functional, cell-based; settings: Homo sapiens, 22Rv1;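 also: growth inhibition of 22Rv1 cells, read out with a cell viability assay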
Description: SANGER: Inhibition of human 22RV1 cell growth in a cell viability assay.

5637 = experiment: cells; type: functional, cell-based; settings: Homo sapiens
Description: SANGER: Inhibition of human 5637 cell growth in a cell viability assay.

ChaGo-K-1 = experiment: cells; type: functional, cell-based; settings: Homo sapiens;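 also: growth inhibition of ChaGo-K-1 cells, read out with a cell viability assay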
Description: SANGER: Inhibition of human ChaGo-K-1 cell growth in a cell viability assay.

YAPC = experiment: cells; type: functional, cell-based; settings: Homo sapiens;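 also: growth inhibition of YAPC cells, measured with a cell viability assay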
Description: SANGER: Inhibition of human YAPC cell growth in a cell viability assay.

D-566MG = experiment: cells; type: functional, cell-based; settings: Homo sapiens
CHP-134 = experiment: SANGER: Inhibition of human CHP-134 cell growth in a cell viability assay.; type: functional, cell-based
647-V = experiment: cells; type: functional, cell-based; settings: Homo sapiens;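 also: growth inhibition of 647-V cells, read out with a cell viability assay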
Description: SANGER: Inhibition of human 647-V cell growth in a cell viability assay.

PC-14 = experiment: cells; type: functional, cell-based; settings: Homo sapiens;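 also: cell viability assay measuring inhibition of PC-14 cell growth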
Description: SANGER: Inhibition of human PC-14 cell growth in a cell viability assay.

U-118-MG = experiment: cells; type: functional, cell-based; settings: Homo sapiens
Description: SANGER: Inhibition of human U-118-MG cell growth in a cell viability assay.

A549 = experiment: cells; type: functional, cell-based; settings: Homo sapiens;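 also: growth inhibition of A549 cells, read out with a cell viability assay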
Description: SANGER: Inhibition of human A549 cell growth in a cell viability assay.

Ca-Ski = experiment: cells; type: functional, cell-based; settings: Homo sapiens;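 also: cell viability assay measuring inhibition of Ca-Ski cell growth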
Description: SANGER: Inhibition of human Ca-Ski cell growth in a cell viability assay.

GMS-10 = experiment: cells; type: functional, cell-based; settings: Homo sapiens;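 also: growth inhibition of GMS-10 cells, read out as cell viability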
Description: SANGER: Inhibition of human GMS-10 cell growth in a cell viability assay.

CFPAC-1 = experiment: cells; type: functional, cell-based; settings: Homo sapiens;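 also: cell viability readout used to gauge suppression of CFPAC-1 cell proliferation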
Description: SANGER: Inhibition of human CFPAC-1 cell growth in a cell viability assay.

SBC-5 = experiment: cells; type: functional, cell-based; settings: Homo sapiens;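 also: cell viability assay read-out, IC50 is the concentration that inhibits growth of the cells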
Description: SANGER: Inhibition of human SBC-5 cell growth in a cell viability assay.

NBsusSR = experiment: cells; type: functional, cell-based; settings: Homo sapiens;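 also: growth inhibition of the human cell line, read out with a cell viability assay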
Description: SANGER: Inhibition of human NBsusSR cell growth in a cell viability assay.

OVCAR-8 = experiment: cells; type: functional, cell-based; settings: Homo sapiens;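 also: growth inhibition of human OVCAR-8 cells, read out by a cell viability assay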
Description: SANGER: Inhibition of human OVCAR-8 cell growth in a cell viability assay.

NCI-H2291 = experiment: cells; type: functional, cell-based; settings: Homo sapiens
Description: SANGER: Inhibition of human NCI-H2291 cell growth in a cell viability assay.

GAMG = experiment: cells; type: functional, cell-based; settings: Homo sapiens;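 also: cell growth inhibition measured by a viability assay in the GAMG human cell line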
Description: SANGER: Inhibition of human GAMG cell growth in a cell viability assay.

LU-99A = experiment: cells; type: functional, cell-based; settings: Homo sapiens;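 also: growth inhibition of LU-99A cells, read out with a cell viability assay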
Description: SANGER: Inhibition of human LU-99A cell growth in a cell viability assay.

MOLT-13 = experiment: cells; type: functional, cell-based; settings: Homo sapiens;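 also: IC50 for suppression of MOLT-13 cell growth, read out with a cell viability assay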
Description: SANGER: Inhibition of human MOLT-13 cell growth in a cell viability assay.

D-423MG = experiment: cells; type: functional, cell-based; settings: Homo sapiens
Description: SANGER: Inhibition of human D-423MG cell growth in a cell viability assay.

NUGC-3 = experiment: cells; type: functional, cell-based; settings: Homo sapiens;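 also: growth inhibition of human NUGC-3 cells, read out with a cell viability assay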
Description: SANGER: Inhibition of human NUGC-3 cell growth in a cell viability assay.

OE33 = experiment: cells; type: functional, cell-based; settings: Homo sapiens;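 also: growth inhibition of human OE33 cells, measured by a cell viability assay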
Description: SANGER: Inhibition of human OE33 cell growth in a cell viability assay.

KP-N-YN = experiment: cells; type: functional, cell-based; settings: Homo sapiens;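 also: growth inhibition of KP-N-YN cells, read out with a cell viability assay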
Description: SANGER: Inhibition of human KP-N-YN cell growth in a cell viability assay.

NCI-H358 = experiment: cells; type: functional, cell-based; settings: Homo sapiens;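 also: growth inhibition of NCI-H358 human cells, read out with a cell viability assay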
Description: SANGER: Inhibition of human NCI-H358 cell growth in a cell viability assay.

8505C = experiment: cells; type: functional, cell-based; settings: Homo sapiens
Description: SANGER: Inhibition of human 8505C cell growth in a cell viability assay.

HLE = experiment: cells; type: functional, cell-based; settings: Homo sapiens;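 also: growth inhibition of human HLE cells, read out by a cell viability assay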
Description: SANGER: Inhibition of human HLE cell growth in a cell viability assay.

HOP-92 = experiment: cells; type: functional, cell-based; settings: Homo sapiens;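 also: cell viability readout, with IC50 reflecting inhibition of HOP-92 cell growth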
Description: SANGER: Inhibition of human HOP-92 cell growth in a cell viability assay.

YH-13 = experiment: cells; type: functional, cell-based; settings: Homo sapiens;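 also: cell viability readout of growth suppression in the human YH-13 cell line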
Description: SANGER: Inhibition of human YH-13 cell growth in a cell viability assay.

CAL-12T = experiment: cells; type: functional, cell-based; settings: Homo sapiens;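 also: growth inhibition of human CAL-12T cells, read out with a cell viability assay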
Description: SANGER: Inhibition of human CAL-12T cell growth in a cell viability assay.

KYSE-140 = experiment: cells; type: functional, cell-based; settings: Homo sapiens;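 also: cell viability assay measuring growth inhibition in human KYSE-140 cells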
Description: SANGER: Inhibition of human KYSE-140 cell growth in a cell viability assay.

SW-620 = experiment: cells; type: functional, cell-based; settings: Homo sapiens;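 also: growth inhibition of human SW-620 cells, measured by a cell viability assay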
Description: SANGER: Inhibition of human SW620 cell growth in a cell viability assay.

A-431 = experiment: cells; type: functional, cell-based; settings: Homo sapiens;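 also: growth inhibition of A-431 cells, determined with a cell viability read-out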
Description: SANGER: Inhibition of human A431 cell growth in a cell viability assay.

T47D = experiment: cells; type: functional, cell-based; settings: Homo sapiens;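 also: growth inhibition of human T47D cells, measured with a cell viability assay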
Description: SANGER: Inhibition of human T47D cell growth in a cell viability assay.

NCI-H1048 = experiment: cells; type: functional, cell-based; settings: Homo sapiens;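 also: growth inhibition of human NCI-H1048 cells, read out with a cell viability assay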
Description: SANGER: Inhibition of human NCI-H1048 cell growth in a cell viability assay.

TGBC11TKB = experiment: cells; type: functional, cell-based; settings: Homo sapiens;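 also: growth inhibition of human TGBC11TKB cells, measured by a cell viability assay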
Description: SANGER: Inhibition of human TGBC11TKB cell growth in a cell viability assay.

KNS-62 = experiment: cells; type: functional, cell-based; settings: Homo sapiens;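 also: inhibition of cell growth, read out with a cell viability assay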
Description: SANGER: Inhibition of human KNS-62 cell growth in a cell viability assay.

ZR-75-30 = experiment: cells; type: functional, cell-based; settings: Homo sapiens;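 also: growth inhibition of ZR-75-30 cells, measured with a cell viability readout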
Description: SANGER: Inhibition of human ZR-75-30 cell growth in a cell viability assay.

Caov-3 cell line = experiment: cells; type: functional, cell-based; settings: Homo sapiens;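 also: cell growth inhibition read out by a viability assay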
Description: SANGER: Inhibition of human Caov-3 cell growth in a cell viability assay.

MDA-MB-134-VI = experiment: cells; type: functional, cell-based, Homo sapiens; settings: Homo sapiens, MDA-MB-134-VI
Description: SANGER: Inhibition of human MDA-MB-134-VI cell growth in a cell viability assay.

LP-1 = experiment: cells; type: functional, cell-based, Homo sapiens; settings: Homo sapiens, LP-1;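 also: growth inhibition of human LP-1 cells, with the read-out taken from a cell viability assay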
Description: SANGER: Inhibition of human LP-1 cell growth in a cell viability assay.

NCI-H1734 = experiment: cells; type: functional, cell-based; settings: Homo sapiens;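 also: growth inhibition of human NCI-H1734 cells, read out with a cell viability assay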
Description: SANGER: Inhibition of human NCI-H1734 cell growth in a cell viability assay.

SIG-M5 = experiment: cells; type: functional, cell-based, Homo sapiens; settings: Homo sapiens, SIG-M5;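 also: cell viability assay read-out, measuring how strongly growth of cultured human SIG-M5 cells is inhibited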
Description: SANGER: Inhibition of human SIG-M5 cell growth in a cell viability assay.

SNU-C1 = experiment: cells; type: functional, cell-based, Homo sapiens; settings: Homo sapiens, SNU-C1;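 also: growth inhibition of SNU-C1 human cells, read out by a cell viability assay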
Description: SANGER: Inhibition of human SNU-C1 cell growth in a cell viability assay.

EW-7 = experiment: SANGER: Inhibition of human EW-7 cell growth in a cell viability assay.; type: functional, cell-based
MFE-296 = experiment: SANGER: Inhibition of human MFE-296 cell growth in a cell viability assay.; type: functional, cell-based
SK-CO-1 = experiment: cells; type: functional, cell-based; settings: Homo sapiens;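 also: growth inhibition of SK-CO-1 cells, determined by a viability readout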
Description: SANGER: Inhibition of human SK-CO-1 cell growth in a cell viability assay.

COR-L279 = experiment: SANGER: Inhibition of human COR-L279 cell growth in a cell viability assay.; type: functional, cell-based; settings: Homo sapiens, COR-L279
MONO-MAC-6 = experiment: cells; type: functional, cell-based, Homo sapiens; settings: Homo sapiens, MONO-MAC-6;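 also: cell viability assay measuring growth inhibition of human MONO-MAC-6 cells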
Description: SANGER: Inhibition of human MONO-MAC-6 cell growth in a cell viability assay.

NALM-6 = experiment: cells; type: functional, cell-based, Homo sapiens; settings: Homo sapiens, NALM-6;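 also: growth inhibition of NALM-6 cells, read out with a cell viability assay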
Description: SANGER: Inhibition of human NALM-6 cell growth in a cell viability assay.

MDA-MB-468 = experiment: cells; type: functional, cell-based; settings: Homo sapiens
Description: SANGER: Inhibition of human MDA-MB-468 cell growth in a cell viability assay.

DV-90 = experiment: cells; type: functional, cell-based; settings: Homo sapiens;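 also: Read-out is a viability assay, with IC50 reflecting the drop in DV-90 cell growth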
Description: SANGER: Inhibition of human DV-90 cell growth in a cell viability assay.

MES-SA = experiment: cells; type: functional, cell-based; settings: Homo sapiens;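 also: growth inhibition of human MES-SA cells, read out with a cell viability assay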
Description: SANGER: Inhibition of human MES-SA cell growth in a cell viability assay.

CCF-STTG1 = experiment: cells; type: functional, cell-based; settings: Homo sapiens;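 also: growth inhibition of human CCF-STTG1 cells, determined with a cell viability read-out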
Description: SANGER: Inhibition of human CCF-STTG1 cell growth in a cell viability assay.

EB2 = experiment: cells; type: functional, cell-based, Homo sapiens; settings: Homo sapiens, EB2;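 also: growth inhibition of EB2 cells, read out with a cell viability assay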
Description: SANGER: Inhibition of human EB2 cell growth in a cell viability assay.

DMS-79 = experiment: cells; type: functional, cell-based, Homo sapiens; settings: Homo sapiens, DMS-79
Description: SANGER: Inhibition of human DMS-79 cell growth in a cell viability assay.

NCI-H345 = experiment: cells; type: functional, cell-based, Homo sapiens; settings: Homo sapiens, NCI-H345;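 also: growth inhibition of NCI-H345 cells measured with a cell viability assay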
Description: SANGER: Inhibition of human NCI-H345 cell growth in a cell viability assay.

K052 = experiment: cells; type: functional, cell-based, Homo sapiens; settings: Homo sapiens, K052;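 also: Read-out from a cell viability assay, IC50 reflecting suppression of K052 cell growth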
Description: SANGER: Inhibition of human K052 cell growth in a cell viability assay.

KARPAS-422 = experiment: cells; type: functional, cell-based, Homo sapiens; settings: Homo sapiens, KARPAS-422
Description: SANGER: Inhibition of human KARPAS-422 cell growth in a cell viability assay.

In the case of Cc1ccc(-n2nc(C(C)(C)C)cc2NC(=O)Nc2ccc(OCCN3CCOCC3)c3ccccc23)cc1 [DORAMAPIMOD], the IC50 (CWR22R) is reported as over 10 µM, the IC50 5637 is reported as over 10 µM and the IC50 (ChaGo-K-1) is reported as over 10 µM. For the same molecule, the IC50 (YAPC) was over 10 µM, the IC50 (D-566MG) was over 10 µM and the IC50 (CHP-134) was over 10 µM. The IC50 (647-V) was over 10 µM, the IC50 (PC-14) was over 10 µM and the IC50 (U-118-MG) was over 10 µM. For the same molecule, the IC50 (A549) was over 10 µM, the IC50 (Ca-Ski) was over 10 µM and the IC50 (GMS-10) was over 10 µM. It also gave an IC50 (CFPAC-1) of over 10 µM, an IC50 (SBC-5) of over 10 µM and an IC50 (NBsusSR) of over 10 µM. It also gave an IC50 (OVCAR-8) of over 10 µM, an IC50 (NCI-H2291) of over 10 µM and an IC50 (GAMG) of over 10 µM. The IC50 (LU-99A) was over 10 µM, the IC50 (MOLT-13) was over 10 µM and the IC50 (D-423MG) was over 10 µM. The IC50 (NUGC-3) was over 10 µM, the IC50 (OE33) was over 10 µM and the IC50 (KP-N-YN) was 8.2 µM. For the same molecule, the IC50 (NCI-H358) was 7.54 µM, the IC50 (8505C) was over 10 µM and the IC50 (HLE) was over 10 µM. For the same molecule, the IC50 (HOP-92) was over 10 µM, the IC50 (YH-13) was over 10 µM and the IC50 (CAL-12T) was over 10 µM. For the same molecule, the IC50 (KYSE-140) was over 10 µM, the IC50 (SW-620) was over 10 µM and the IC50 (A-431) was over 10 µM. It also gave an IC50 (T47D) of over 10 µM, an IC50 (NCI-H1048) of over 10 µM and an IC50 (TGBC11TKB) of over 10 µM. For the same molecule, the IC50 (KNS-62) was over 10 µM and the IC50 (ZR-75-30) was over 10 µM.
For CC1(C)CCC(c2ccc(Cl)cc2)=C(CN2CCN(c3ccc(C(=O)NS(=O)(=O)c4ccc(N[C@H](CCN5CCOCC5)CSc5ccccc5)c(S(=O)(=O)C(F)(F)F)c4)cc3)CC2)C1 [NAVITOCLAX], the IC50 (CWR22R) was over 2 µM, the IC50 5637 was over 2 µM and the IC50 (ChaGo-K-1) was over 2 µM. The IC50 (YAPC) was over 2 µM, the IC50 (D-566MG) was over 2 µM and the IC50 (CHP-134) was 0.163 µM. It also gave an IC50 (647-V) of over 2 µM, an IC50 (PC-14) of over 2 µM and an IC50 (U-118-MG) of over 2 µM. The IC50 (A549) was over 2 µM, the IC50 (Ca-Ski) was over 2 µM and the IC50 (GMS-10) was over 2 µM. It also gave an IC50 (CFPAC-1) of over 2 µM, an IC50 (SBC-5) of over 2 µM and an IC50 (NBsusSR) of over 2 µM. The IC50 (OVCAR-8) was over 2 µM, the IC50 (NCI-H2291) was over 2 µM and the IC50 (GAMG) was over 2 µM. For the same molecule, the IC50 (LU-99A) was over 2 µM, the IC50 (MOLT-13) was 0.466 µM and the IC50 (D-423MG) was over 2 µM. It also gave an IC50 (NUGC-3) of over 2 µM, an IC50 (OE33) of over 2 µM and an IC50 (KP-N-YN) of 0.236 µM. For the same molecule, the IC50 (NCI-H358) was over 2 µM, the IC50 (8505C) was over 2 µM and the IC50 (HLE) was over 2 µM. For the same molecule, the IC50 (HOP-92) was over 2 µM, the IC50 (YH-13) was over 2 µM and the IC50 (CAL-12T) was over 2 µM. It also gave an IC50 (KYSE-140) of over 2 µM, an IC50 (SW-620) of over 2 µM and an IC50 (A-431) of over 2 µM. For the same molecule, the IC50 (T47D) was over 2 µM, the IC50 (NCI-H1048) was 0.51 µM and the IC50 (TGBC11TKB) was over 2 µM. It also gave an IC50 (KNS-62) of over 2 µM and an IC50 (ZR-75-30) of over 2 µM.
Cc1ccc(C(=O)Nc2ccc(CN3CCN(C)CC3)c(C(F)(F)F)c2)cc1C#Cc1cnc2cccnn12 [PONATINIB] showed an IC50 (Caov-3 cell line) of over 0.512 µM, an IC50 (MDA-MB-134-VI) of over 0.512 µM and an IC50 (CWR22R) of over 0.512 µM. The IC50 5637 was over 0.512 µM, the IC50 (ChaGo-K-1) was over 0.512 µM and the IC50 (LP-1) was over 0.512 µM. The IC50 (YAPC) was over 0.512 µM, the IC50 (NCI-H1734) was over 0.512 µM and the IC50 (SIG-M5) was 0.134 µM. The IC50 (SNU-C1) was over 0.512 µM, the IC50 (EW-7) was over 0.512 µM and the IC50 (647-V) was over 0.512 µM. For the same molecule, the IC50 (PC-14) was over 0.512 µM, the IC50 (MFE-296) was 0.118 µM and the IC50 (U-118-MG) was over 0.512 µM. It also gave an IC50 (SK-CO-1) of over 0.512 µM, an IC50 (COR-L279) of over 0.512 µM and an IC50 (Ca-Ski) of over 0.512 µM. The IC50 (MONO-MAC-6) was 0.00837 µM, the IC50 (NALM-6) was 0.255 µM and the IC50 (GMS-10) was over 0.512 µM. It also gave an IC50 (SBC-5) of over 0.512 µM, an IC50 (OVCAR-8) of over 0.512 µM and an IC50 (MDA-MB-468) of over 0.512 µM. For the same molecule, the IC50 (DV-90) was over 0.512 µM, the IC50 (GAMG) was over 0.512 µM and the IC50 (LU-99A) was over 0.512 µM. It also gave an IC50 (NUGC-3) of over 0.512 µM, an IC50 (OE33) of over 0.512 µM and an IC50 (MES-SA) of 0.242 µM. For the same molecule, the IC50 (NCI-H358) was over 0.512 µM, the IC50 (CCF-STTG1) was 0.225 µM and the IC50 (8505C) was over 0.512 µM. For the same molecule, the IC50 (HLE) was 0.419 µM, the IC50 (HOP-92) was over 0.512 µM and the IC50 (CAL-12T) was over 0.512 µM. The IC50 (KYSE-140) was over 0.512 µM, the IC50 (EB2) was 0.0558 µM and the IC50 (DMS-79) was over 0.512 µM. It also gave an IC50 (NCI-H345) of over 0.512 µM, an IC50 (SW-620) of over 0.512 µM and an IC50 (A-431) of over 0.512 µM. For the same molecule, the IC50 (T47D) was over 0.512 µM, the IC50 (K052) was over 0.512 µM and the IC50 (KARPAS-422) was over 0.512 µM.
